Three compounds from patent US6306897A, “Calanolides for inhibiting BTK” (Parker Hughes Institute, priority 1999, dated 2001) can be followed below.

As a reminder, the IC50 is the concentration that gives 50% inhibition.

Series [1] concerns RBL-2H3 mast cells. Nature of the series: Leukotriene C4 release from IgE/antigen stimulated RBL-2H3 mast cells (LTC4 ELISA). It is filed as cell-based. Particulars: 1 hour preincubation, IgE/DNP-BSA challenge 30 minutes. The method, then: (§1) RBL-2H3 cells were sensitized with monoclonal anti-DNP IgE antibody (0.24 mg/ml) for 1 hour at 37° C. in a 48-well tissue culture plate. RBL-2H3 cells were allowed to adhere to the plate, whereas bone marrow mast cells (BMMC) were used in suspension. Unbound IgE was removed by washing the cells with phosphate buffered saline. After washing the BMMC were re-suspended in RPMI-hepes buffer. PIPES-buffered saline containing 1 mM calcium chloride was added to the monolayers of the RBL-2H3 cells.
(§2) To study the effects of compound HI-D12, mast cells were incubated with compound HI-D12 at the indicated concentrations or vehicle for 1 hour prior to challenge. The cells were challenged with 20 ng/ml DNP-BSA for 30 minutes at 37° C. The plate was then centrifuged at 200 g for 10 minutes at 4° C. Supernatants were removed and saved. RBL-2H3 cell pellets were washed with phosphate buffered saline and solubilized in PIPES buffered saline containing 0.1% Triton X-100.
(§3) Leukotriene (LT) C4 levels were estimated in cell free supernatants by immunoassay using (LT) C4 ELISA kits obtained from Cayman Company (Ann Arbor, Mich.), according to the manufacturer instructions. β-hexosaminidase release was estimated in cell free supernatants and Triton X-100 solubilized pellets, using the method described in Ozawa et al, 1993, J. Biol. Chem., 268:1749-1756.

Another series deals with BALB/c mice. Briefly: Passive cutaneous anaphylaxis in mice (Evans blue dye extravasation). It is filed as in vivo. The method, then:
In order to examine the effect of HI-D12 on passive cutaneous anaphylaxis in mice, dorsal sides of the ears of BALB/c mice were injected intradermally with 20 ng of DNP-IgE (left ears) or PBS (right ears) in 20 μL volume using a 30-gauge needle, as previously described (Miyajima et. al., 1997, J. Clin. Invest. 99:901-914). After 20 hours, mice were treated with compound HI-D12 (15 or 50 mg/kg i.p.) twice at 1 hour intervals prior to the antigen challenge. Control mice were treated with an equal volume of vehicle. Thirty minutes after the last dose of compound HI-D12 or vehicle, mice were challenged with 100 μg antigen (DNP-BSA) in 200 μl 2% Evans blue dye intravenously. Mice were sacrificed by cervical dislocation 30 minutes after the antigen challenge. For quantitation of Evans blue dye extravasation as a measure of anaphylaxis-associated vascular hyperpermeability, 8 mm skin specimens were removed from the ears of mice, minced in 2 ml formamide and incubated at 80° C. for 2 hours in water bath to extract the dye. The absorbance was read at […]. The data were expressed as plasma exudation indices (i.e., times increase in optical density over PBS treated ears at 620 nm).

In series [2] the test system is RBL-2H3 mast cells. Nature of the series: β-hexosaminidase release from IgE/antigen stimulated RBL-2H3 mast cells. To be noted: 1 hour preincubation, IgE/DNP-BSA challenge 30 minutes. It is filed as cell-based. The method, then:
as §1, §2, §3

The next series deals with T1, recombinant BTK (Mus musculus, UniProt P35991).
T1 construct: made in house; host or cells: Insect cells (Sf21, IPLB-SF21-AE) with recombinant baculovirus from pFastBac1-BTK
T1 sequence (P35991 whole entry): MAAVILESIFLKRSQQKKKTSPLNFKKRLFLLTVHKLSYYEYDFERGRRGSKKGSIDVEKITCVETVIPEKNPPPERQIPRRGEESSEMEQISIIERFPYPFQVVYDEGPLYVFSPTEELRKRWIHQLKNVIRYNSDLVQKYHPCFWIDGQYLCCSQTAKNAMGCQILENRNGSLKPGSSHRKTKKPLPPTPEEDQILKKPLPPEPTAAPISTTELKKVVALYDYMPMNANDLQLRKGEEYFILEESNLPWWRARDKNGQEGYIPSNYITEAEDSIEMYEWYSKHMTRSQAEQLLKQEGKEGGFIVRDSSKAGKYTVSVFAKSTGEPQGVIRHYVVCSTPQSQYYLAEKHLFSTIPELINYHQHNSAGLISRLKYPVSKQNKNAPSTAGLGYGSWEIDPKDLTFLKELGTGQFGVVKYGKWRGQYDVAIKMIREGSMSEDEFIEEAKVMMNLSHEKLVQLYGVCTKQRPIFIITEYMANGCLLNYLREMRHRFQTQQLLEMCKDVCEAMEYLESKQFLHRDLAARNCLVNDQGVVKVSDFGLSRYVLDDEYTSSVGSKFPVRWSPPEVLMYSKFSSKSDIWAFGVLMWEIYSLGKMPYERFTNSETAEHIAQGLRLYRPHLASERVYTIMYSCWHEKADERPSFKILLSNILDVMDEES
Nature of the series: Recombinant BTK immune-complex kinase assay (baculovirus vector expression system). To be noted: for inhibition of recombinant BTK, concentration dependence: BTK expressed in a baculovirus vector expression system; for IC50: recombinant BTK, kinase assay (Table 1). It counts as biochemical, murine. The method, then: The effects of calanolides on the enzymatic activity of the tyrosine kinase BTK in kinase assays was evaluated using recombinant BTK, according to the methods previously reported (Mahajan et al., 1999, J Biol. Chem., 274:9587-9599).
Sf21 (IPLB-SF21-AE) cells, derived from the ovarian tissue of the fall armyworm Spodotera frugiperda, were obtained from Invitrogen and maintained at 26-28° C. in Grace's insect cell medium supplemented with 10% FBS and 1.0% antibiotic/antimycotic (GIBCO-BRL). Stock cells were maintained in suspension at 0.2-1.6×10^6 /ml in 600 ml total culture volume in 1 L Bellco spinner flasks at 60-90 rpm. Cell viability was maintained at 95-100% as determined by trypan blue dye exclusion.
To construct the recombinant baculovirus containing the murine BTK gene, the gene encoding BTK was excised from pBluescript SKII^+ vector (Stratagene) by digestion with BamHI. This fragment was then ligated into pFastBac1 (Gibco-BRL). The resulting vector, pFastBac1-BTK, was used to generate the recombinant baculovirus by site-specific transposition in E. coli DH10Bac cells (Gibco-BRL), which harbor a baculovirus shuttle vector (bacmid), bMON14272. The resulting recombinant bacmid DNA was introduced into insect cells by transfection with the standard liposome-mediated method using Cellfectin reagent (Gibco-BRL). Four days later, transfection supernatants were harvested for subsequent plaque purification and analyzed.
Immunoprecipitations, immune-complex protein kinase assays, and immunoblotting using the ECL chemiluminescence detection system (Amersham Life Sciences) were conducted as described previously (Mahajan et al., 1999, J. Biol. Chem., 274:9587-9599). Following electrophoresis, kinase gels were dried onto Whatman 3M filter paper and subjected to phosphoimaging on a Molecular Imager (Bio-Rad, Hercules, Calif.) as well as autoradiography on film. Similarly, all chemiluminescent BTK Western blots were subjected to three dimesional densitometric scanning using the Molecular Imager and Imaging Densitometer using the Molecular Analyst/Macontosh version 2.1 software following the specifications of the manufacturer (Bio-Rad). For each drug concentration, a BTK kinase activity index was determined by comparing the ratios of the kinase activity in phosphorimager units (PIU) and density of the protein bands in densitometric scanning units (DSU) to those of the baseline sample and using the formula: Activity Index=[PIU of kinase band/DSU of BTK protein band]test sample :[PIU of kinase band/DSU of BTK protein band]baseline control sample. Horse radish peroxidase-conjugated sheep anti-mouse, donkey anti-rabbit secondary antibodies and ECL reagents were purchased from Amersham (Oakbrook, Ill.).

For the compound `CCCc1cc(=O)oc2c(C(=O)CC)c(O)c3c(c12)OC(C)(C)C=C3` [HI-D12, 6,6 Dimethyl-9-hydroxy-10-propionyl-4-propyl-2H,6H-benzo[1,2-b: 3,4-b']dipyran-2-one], in the series on RBL-2H3 mast cells [1], the “inhibition of LTC4 release” value is “inhibited the release of the newly synthesized arachidonic acid metabolite LTC4 in a concentration-dependent fashion”. In addition, in the series with BALB/c mice (50 mg/kg dose level), the “tolerability of dose level” value was “nontoxic”. In the series with BALB/c mice (50 mg/kg i.p., twice prior to antigen challenge), the “inhibition of IgE/antigen induced plasma exudation” value was found to be 70%. Besides, in the series on RBL-2H3 mast cells [2], the “effect on release of preformed granule-associated β-hexosaminidase” value is given as “did not prevent the release of preformed granule-associated β-hexosaminidase”. On recombinant BTK, the “inhibition of recombinant BTK, concentration dependence” value (shortened to “inhibition of recombinant BTK”) is recorded as “in a concentration-dependent fashion” and the IC50 was found to be 29 µM.

Turning to `CCCc1cc(=O)oc2c3c(c4c(c12)OC(C)(C)C=C4)O[C@H](C)[C@@H](C)C3=O` (relative stereo) [HI-D86, 10,11-trans-Dihydro-6,6,10,11-tetramethyl-4-propyl-2H,6H,12H-benzo[2-b: 3,4-b':5,6-b"]tripyran-2,12-dione], on recombinant BTK, the “inhibition of recombinant BTK” value is “in a concentration-dependent fashion” and the IC50 was 110 µM.

As to `CCCc1cc(=O)oc2c3c(c4c(c12)OC(C)(C)C=C4)O[C@H](C)[C@@H](C)[C@@H]3O` (relative stereo) [HI-D63, (±)-Calanolide A], on recombinant BTK, the “inhibition of recombinant BTK” value is given as “in a concentration-dependent fashion” and the IC50 was 130 µM.
